# Measurements as given in patent publication US20070049518A1, “Novel method of treatment of inflammatory skin conditions” (priority 2005, published 2007).
# pIC50: −log10 of the molar value.
# Experiments:
# [1] = tested on: protease activity in skin wash samples from patients with acute AD; assay: Zymographic analysis of skin wash samples; assay type: biochemical, human; details: 50 μM; gelatin zymogram gel; 6 samples acute AD
# Procedure: A method has been developed to evaluate protease activity in skin washings. Skin washings from patients with acute eczema may be obtained by aspirating 0.5 ml sterile physiological saline over the skin surface using a sterile, disposable plastic Pasteur pipette The skin area (˜1 cm^2) is defined by a sterile open-ended plastic cylinder. Samples were transferred to 0.05 ml 0.55 M MOPS buffer pH 7.0, 55 mM calcium chloride and 0.2% Brij 35, mixed, centrifuged to remove debris and frozen at −70° C. pending analysis.
# Zymographic analysis of the protease content of the samples may be done by mixing with 0.2 volume 0.2M Tris-HCl pH 6.8 containing 37.5% (v/v) glycerol and 2.5% sodium dodecylsulphate followed by electrophoresis through a gelatin zymogram gel (Invitrogen Corporation) according to the manufacturer's instructions. Gels were washed in 2.5% (w/v) Triton X-100 in 25 mM MOPS buffer pH 7 with or without compound 11 (50 μM) and developed overnight at 37° C. in 0.1M MOPS buffer pH 7 containing 5 mM calcium chloride with or without compound 11 (50 μM). Zones of clearing due to proteolytic activity may be identified by staining with Coomassie Brilliant Blue R followed by destaining in 40% (v/v) methanol/10% (v/v) acetic acid. […]
# [2] = biological target: aureolysin (Staphylococcus aureus, UniProt P81177); assay: Inhibition of aureolysin-mediated pro-uPA activation; details: for Relative activity: Aureolysin 1 μg/ml, pH 5.6
# Excerpt: Under these conditions the extent of pro-uPA cleavage as assessed by uPA activity was directly proportional to the concentration of aureolysin in the assay.
# [3] = biological target: T1, recombinant human ACE (Homo sapiens, UniProt P12821); assay: Selectivity profile, ACE; assay type: biochemical; details: read-out: inhibition at 0.1 mM, ACE
# T1 construct: purchased R&D Systems Inc
# Procedure: (§1) Inhibitory activity was tested in reaction mixtures (0.1 ml) containing 2% (v/v) DMSO vehicle±compound plus additions as follows. V8 protease: 90 mM MOPS (sodium) buffer pH 7.0, […] calcium chloride, 0.045% Brij 35, 10 μM Mca-Leu-Glu-Val-Asp-Gly-Trp-Lys(Dnp)-amide (Bachem) and V8 (BioCentrum Ltd; 30 ng). Staphopain A and B: 90 mM MOPS (sodium) buffer pH 7.0, 1.8 mM cysteine-HCl (pH-adjusted with NaOH), 0.045% Brij 35, 0.1 mM Z-Phe-Arg-AMC hydrochloride (Bachem) and staphopain A or B (BioCentrum Ltd; 30 ng). Human kallikrein 5: 0.1M sodium phosphate buffer pH 8.0, 0.045% Brij 35, 0.1 mM Boc-Val-Pro-Arg-AMC (Sigma) and recombinant human kallikrein 5 (R&D Systems Inc; 6 ng). Human kallikrein 7: 72 mM Tris-HCl pH 8.0, 0.033% Brij 35, 1.2 mM S-2586 (Chromogenix Instrumentation Laboratory SpA) and recombinant human kallikrein 7 (R&D Systems Inc; 0.6 μg) that had been thermolysin-activated according to the manufacturer's instructions. Human angiotensin-converting enzyme (ACE): 45 mM MES (sodium) buffer pH 6.5, 0.045% Brij 35, 10 μM Mca-[…]Dnp)-OH(R&D Systems Inc) and recombinant human ACE (R&D Systems Inc; 1.3 ng). Human cathepsin D: 0.1M sodium acetate buffer pH 3.5, 0.2M sodium chloride, 0.045% Brij 35, 10 μM Mca-Pro-Leu-Gly-Leu-Dap(Dnp)-Ala-Arg-amide (Bachem) and recombinant human cathepsin D (R&D Systems Inc; 8 ng) activated according to the manufacturer's instructions. […]
# [4] = biological target: T2, recombinant human kallikrein 7 (Homo sapiens, UniProt P49862); assay: Selectivity profile, kallikrein 7; assay type: biochemical; details: read-out: inhibition at 0.1 mM, Kallikrein 7
# T2 construct: purchased R&D Systems Inc
# Procedure: as §1
# [5] = biological target: T3, recombinant human cathepsin D (Homo sapiens, UniProt P07339); assay: Selectivity profile, cathepsin D; assay type: biochemical; details: read-out: inhibition at 0.1 mM, Cathepsin D
# T3 construct: recombinant human cathepsin D (R&D Systems Inc); purchased R&D Systems Inc
# Procedure: as §1
# [6] = Solubility in water; assay type: physicochemical; details: particularly when the solid is in amorphous form
# Sequence of aureolysin (P81177 209-509): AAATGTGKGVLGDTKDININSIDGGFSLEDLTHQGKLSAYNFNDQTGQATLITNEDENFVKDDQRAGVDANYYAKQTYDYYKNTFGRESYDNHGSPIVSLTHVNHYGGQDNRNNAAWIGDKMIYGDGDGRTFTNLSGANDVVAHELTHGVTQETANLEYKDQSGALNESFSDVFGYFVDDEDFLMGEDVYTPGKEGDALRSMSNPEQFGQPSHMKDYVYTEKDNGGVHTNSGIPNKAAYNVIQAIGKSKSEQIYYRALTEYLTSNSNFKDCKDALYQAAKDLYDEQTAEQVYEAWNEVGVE
# T3 sequence (P07339 65-412): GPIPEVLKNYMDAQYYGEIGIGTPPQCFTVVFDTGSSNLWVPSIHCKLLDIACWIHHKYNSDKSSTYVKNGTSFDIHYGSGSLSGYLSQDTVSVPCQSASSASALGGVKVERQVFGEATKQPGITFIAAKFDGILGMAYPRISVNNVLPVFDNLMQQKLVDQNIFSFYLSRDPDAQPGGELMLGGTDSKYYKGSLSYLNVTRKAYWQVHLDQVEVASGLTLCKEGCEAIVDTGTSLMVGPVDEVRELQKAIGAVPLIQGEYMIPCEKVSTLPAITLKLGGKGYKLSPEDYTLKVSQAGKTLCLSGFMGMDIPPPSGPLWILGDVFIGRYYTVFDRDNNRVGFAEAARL
# T2 sequence (P49862 30-253): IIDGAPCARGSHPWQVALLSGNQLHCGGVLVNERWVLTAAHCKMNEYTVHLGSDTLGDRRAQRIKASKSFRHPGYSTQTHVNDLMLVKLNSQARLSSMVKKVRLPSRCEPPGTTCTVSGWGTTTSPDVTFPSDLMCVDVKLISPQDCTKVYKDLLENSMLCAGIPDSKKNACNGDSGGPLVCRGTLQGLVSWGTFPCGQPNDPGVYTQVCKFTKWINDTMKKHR
# T1 sequence (P12821 30-1306): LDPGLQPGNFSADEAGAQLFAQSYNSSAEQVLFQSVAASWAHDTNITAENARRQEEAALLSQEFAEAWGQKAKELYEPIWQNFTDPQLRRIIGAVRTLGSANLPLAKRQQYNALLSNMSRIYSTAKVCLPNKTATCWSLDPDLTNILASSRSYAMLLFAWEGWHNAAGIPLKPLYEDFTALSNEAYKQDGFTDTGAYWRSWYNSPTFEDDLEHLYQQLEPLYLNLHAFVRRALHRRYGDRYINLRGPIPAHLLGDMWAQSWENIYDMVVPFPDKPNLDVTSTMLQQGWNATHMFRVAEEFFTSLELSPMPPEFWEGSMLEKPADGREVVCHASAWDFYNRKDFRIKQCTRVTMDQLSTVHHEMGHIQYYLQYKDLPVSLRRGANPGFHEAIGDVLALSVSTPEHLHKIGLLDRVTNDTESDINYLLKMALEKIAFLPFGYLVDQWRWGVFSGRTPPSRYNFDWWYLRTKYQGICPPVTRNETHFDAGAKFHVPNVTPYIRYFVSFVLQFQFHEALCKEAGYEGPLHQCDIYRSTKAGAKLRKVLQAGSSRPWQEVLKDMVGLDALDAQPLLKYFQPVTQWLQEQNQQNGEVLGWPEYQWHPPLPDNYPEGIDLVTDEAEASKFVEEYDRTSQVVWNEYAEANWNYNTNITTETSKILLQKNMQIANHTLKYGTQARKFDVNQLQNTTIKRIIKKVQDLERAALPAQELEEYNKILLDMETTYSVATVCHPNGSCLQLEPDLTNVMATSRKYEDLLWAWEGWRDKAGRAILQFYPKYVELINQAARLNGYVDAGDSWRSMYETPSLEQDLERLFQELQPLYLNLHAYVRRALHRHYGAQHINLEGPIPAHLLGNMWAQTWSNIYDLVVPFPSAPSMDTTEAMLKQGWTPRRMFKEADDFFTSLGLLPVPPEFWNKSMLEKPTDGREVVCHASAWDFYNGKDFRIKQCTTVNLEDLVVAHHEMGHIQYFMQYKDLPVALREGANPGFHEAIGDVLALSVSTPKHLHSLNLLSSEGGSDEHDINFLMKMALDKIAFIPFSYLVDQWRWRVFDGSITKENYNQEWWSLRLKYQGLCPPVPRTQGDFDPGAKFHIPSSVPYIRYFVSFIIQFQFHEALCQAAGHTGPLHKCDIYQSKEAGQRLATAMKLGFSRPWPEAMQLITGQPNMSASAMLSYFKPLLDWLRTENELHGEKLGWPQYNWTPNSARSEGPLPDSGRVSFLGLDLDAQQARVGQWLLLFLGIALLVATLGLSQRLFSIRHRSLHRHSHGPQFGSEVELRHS
Structure (SMILES),"inhibition of protease activity in skin wash samples, zymography (in words) [1]",pIC50 [2],Relative activity ([2]; Compound 12 25 μM) [%],Relative activity ([2]; Compound 12 317 μM) [%],inhibition at 100 µM [3] [%],inhibition at 100 µM [4] [%],inhibition at 100 µM [5] [%],solubility in water (in words) [6]
"CNC(=O)[C@@H](NC(=O)[C@@H](CC(=O)NO)CC(C)C)C(C)(C)C [Compound 11, (R)—N1-((S)-3,3-dimethyl-1-(methylamino)-1-oxobutan-2-yl)-N4-hydroxy-2-isobutylsuccinamide]",significant inhibition of protease activity,,,,,,,
"CNC(=O)[C@@H](NC(=O)[C@H](CC(=O)NO)CC(C)C)C(C)(C)C [Compound 12, (S)—N1-((S)-3,3-dimethyl-1-(methylamino)-1-oxobutan-2-yl)-N4-hydroxy-2-isobutylsuccinamide]",,5.62,37,8,0,0,1,particularly soluble in water
